Data as given in PubChem BioAssay (NCI).
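Assay format: 96-well plates, 48-hour exposure. TGI is the concentration that stops growth completely.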

Assays:
Test in all cases: NCI tumour cell line growth inhibition, 48 h
A498 renal = tested on: A498 renal
MOLT-4 leukemia = tested on: MOLT-4 leukemia
CAKI-1 renal = tested on: CAKI-1 renal
IGROV1 ovarian = tested on: IGROV1 ovarian
EKVX NSCLC = tested on: EKVX NSCLC
HOP-62 NSCLC = tested on: HOP-62 NSCLC
SW-620 colon = tested on: SW-620 colon
NCI-H226 lung = tested on: NCI-H226 lung
HCT-116 colon = tested on: HCT-116 colon
OVCAR-8 ovarian = tested on: OVCAR-8 ovarian
OVCAR-3 ovarian = tested on: OVCAR-3 ovarian
HCT-15 colon = tested on: HCT-15 colon
P388/ADR leukemia = tested on: P388/ADR leukemia
MCF7 breast = tested on: MCF7 breast
KM12 colon = tested on: KM12 colon
SN12C renal = tested on: SN12C renal
A549 NSCLC = tested on: A549 NSCLC
HOP-92 NSCLC = tested on: HOP-92 NSCLC
SNB-19 CNS = tested on: SNB-19 CNS
P388 leukemia = tested on: P388 leukemia
SNB-75 CNS = tested on: SNB-75 CNS
SK-OV-3 ovarian = tested on: SK-OV-3 ovarian
NCI/ADR-RES ovarian = tested on: NCI/ADR-RES ovarian
NCI-H23 lung = tested on: NCI-H23 lung
UACC-257 melanoma = tested on: UACC-257 melanoma
OVCAR-4 ovarian = tested on: OVCAR-4 ovarian
HT29 colon = tested on: HT29 colon
RXF 393 renal = tested on: RXF 393 renal
K-562 leukemia = tested on: K-562 leukemia
RPMI-8226 leukemia = tested on: RPMI-8226 leukemia
SN12K1 renal = tested on: SN12K1 renal
UO-31 renal = tested on: UO-31 renal
SF-539 CNS = tested on: SF-539 CNS
COLO 205 colon = tested on: COLO 205 colon
SK-MEL-5 melanoma = tested on: SK-MEL-5 melanoma
HCC-2998 colon = tested on: HCC-2998 colon
NCI-H522 lung = tested on: NCI-H522 lung
NCI-H460 lung = tested on: NCI-H460 lung
OVCAR-5 ovarian = tested on: OVCAR-5 ovarian
SK-MEL-2 melanoma = tested on: SK-MEL-2 melanoma
U251 CNS = tested on: U251 CNS
SF-295 CNS = tested on: SF-295 CNS
LOX IMVI melanoma = tested on: LOX IMVI melanoma
MALME-3M melanoma = tested on: MALME-3M melanoma
HL-60(TB) leukemia = tested on: HL-60(TB) leukemia
SF-268 CNS = tested on: SF-268 CNS
SK-MEL-28 melanoma = tested on: SK-MEL-28 melanoma
KM20L2 colon = tested on: KM20L2 colon
UACC-62 melanoma = tested on: UACC-62 melanoma

Measured: TGI

COCCO
> 100 µM: all assays above
